Results taken from PubChem BioAssay (NCI).
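All cell lines were grown in 96-well plates and treated with compound for 48 hours. Here, GI50 denotes the concentration required for 50% inhibition of growth. At the TGI there is no net growth.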

Tests used:
Assay in all cases: DTP human tumour cell line panel, 48 h
OVCAR-5 ovarian = test system: OVCAR-5 ovarian
UACC-257 melanoma = test system: UACC-257 melanoma
COLO 205 colon = test system: COLO 205 colon
HOP-62 NSCLC = test system: HOP-62 NSCLC
MDA-MB-435 = test system: MDA-MB-435
NCI-H23 lung = test system: NCI-H23 lung
ACHN renal = test system: ACHN renal
BT-549 breast = test system: BT-549 breast
786-0 renal = test system: 786-0 renal
EKVX NSCLC = test system: EKVX NSCLC
SK-MEL-28 melanoma = test system: SK-MEL-28 melanoma
HCT-116 colon = test system: HCT-116 colon
A549 NSCLC = test system: A549 NSCLC
HS 578T breast = test system: HS 578T breast
PC-3 prostate = test system: PC-3 prostate
NCI-H226 lung = test system: NCI-H226 lung
NCI-H460 lung = test system: NCI-H460 lung
NCI/ADR-RES ovarian = test system: NCI/ADR-RES ovarian
SW-620 colon = test system: SW-620 colon
SK-OV-3 ovarian = test system: SK-OV-3 ovarian
UACC-62 melanoma = test system: UACC-62 melanoma
TK-10 renal = test system: TK-10 renal
OVCAR-4 ovarian = test system: OVCAR-4 ovarian
HCT-15 colon = test system: HCT-15 colon
UO-31 renal = test system: UO-31 renal
HT29 colon = test system: HT29 colon
M14 melanoma = test system: M14 melanoma
SK-MEL-5 melanoma = test system: SK-MEL-5 melanoma
A498 renal = test system: A498 renal
CAKI-1 renal = test system: CAKI-1 renal
KM12 colon = test system: KM12 colon
MDA-MB-231 breast = test system: MDA-MB-231 breast
U251 CNS = test system: U251 CNS
MALME-3M melanoma = test system: MALME-3M melanoma
SR leukemia = test system: SR leukemia
DU-145 prostate = test system: DU-145 prostate
LOX IMVI melanoma = test system: LOX IMVI melanoma
SNB-19 CNS = test system: SNB-19 CNS
T-47D breast = test system: T-47D breast
SF-268 CNS = test system: SF-268 CNS
SNB-75 CNS = test system: SNB-75 CNS
SF-539 CNS = test system: SF-539 CNS
NCI-H522 lung = test system: NCI-H522 lung
MCF7 breast = test system: MCF7 breast
RXF 393 renal = test system: RXF 393 renal
SK-MEL-2 melanoma = test system: SK-MEL-2 melanoma
K-562 leukemia = test system: K-562 leukemia
OVCAR-8 ovarian = test system: OVCAR-8 ovarian
IGROV1 ovarian = test system: IGROV1 ovarian
SN12C renal = test system: SN12C renal
SF-295 CNS = test system: SF-295 CNS
HCC-2998 colon = test system: HCC-2998 colon

Question: `Cc1c(COc2cc(OCc3cccc(C#N)c3)c(CN3C[C@H](O)C[C@@H]3C(=O)O)cc2Cl)cccc1-c1ccc2c(c1)OCCO2` was tested. Which GI50 (OVCAR-5 ovarian) did it give?
Answer: 17.3 µM

Question: What about the TGI (OVCAR-5 ovarian) of the same compound?
Answer: 31 µM

Question: And the GI50 (UACC-257 melanoma)?
Answer: 20.6 µM

Question: What about the TGI (UACC-257 melanoma) of the same compound?
Answer: 41.8 µM

Question: What about the GI50 (COLO 205 colon) of the same compound?
Answer: 20.7 µM

Question: What about the TGI (COLO 205 colon) of the same compound?
Answer: 39.7 µM

Question: And the GI50 (HOP-62 NSCLC)?
Answer: 19.8 µM

Question: What about the TGI (HOP-62 NSCLC) of the same compound?
Answer: 38.6 µM

Question: And the GI50 (MDA-MB-435)?
Answer: 17 µM

Question: And the TGI (MDA-MB-435)?
Answer: 33.6 µM

Question: And the GI50 (NCI-H23 lung)?
Answer: 16.9 µM

Question: And the TGI (NCI-H23 lung)?
Answer: 31 µM

Question: And the GI50 (ACHN renal)?
Answer: 17.2 µM

Question: What about the TGI (ACHN renal) of the same compound?
Answer: 31 µM

Question: And the GI50 (BT-549 breast)?
Answer: 7.58 µM

Question: And the TGI (BT-549 breast)?
Answer: 21.8 µM

Question: And the GI50 (786-0 renal)?
Answer: 3.87 µM

Question: What about the TGI (786-0 renal) of the same compound?
Answer: 15.3 µM

Question: And the GI50 (EKVX NSCLC)?
Answer: 18.1 µM

Question: And the TGI (EKVX NSCLC)?
Answer: 41.2 µM

Question: And the GI50 (SK-MEL-28 melanoma)?
Answer: 13.3 µM

Question: What about the TGI (SK-MEL-28 melanoma) of the same compound?
Answer: 26.1 µM

Question: And the GI50 (HCT-116 colon)?
Answer: 1.96 µM

Question: And the TGI (HCT-116 colon)?
Answer: 4.18 µM

Question: What about the GI50 (A549 NSCLC) of the same compound?
Answer: 22.1 µM

Question: What about the TGI (A549 NSCLC) of the same compound?
Answer: 55.3 µM

Question: And the GI50 (HS 578T breast)?
Answer: 21 µM

Question: And the TGI (HS 578T breast)?
Answer: 53.1 µM

Question: What about the GI50 (PC-3 prostate) of the same compound?
Answer: 2.54 µM

Question: What about the TGI (PC-3 prostate) of the same compound?
Answer: 7.7 µM

Question: What about the GI50 (NCI-H226 lung) of the same compound?
Answer: 8.86 µM

Question: What about the TGI (NCI-H226 lung) of the same compound?
Answer: 31.9 µM

Question: And the GI50 (NCI-H460 lung)?
Answer: 14 µM

Question: And the TGI (NCI-H460 lung)?
Answer: 29 µM

Question: And the GI50 (NCI/ADR-RES ovarian)?
Answer: 47.5 µM

Question: And the TGI (NCI/ADR-RES ovarian)?
Answer: > 100 µM

Question: What about the GI50 (SW-620 colon) of the same compound?
Answer: 16.7 µM

Question: What about the TGI (SW-620 colon) of the same compound?
Answer: 31.5 µM

Question: And the GI50 (SK-OV-3 ovarian)?
Answer: 19.4 µM

Question: What about the TGI (SK-OV-3 ovarian) of the same compound?
Answer: 37.7 µM

Question: What about the GI50 (UACC-62 melanoma) of the same compound?
Answer: 17 µM

Question: And the TGI (UACC-62 melanoma)?
Answer: 32.3 µM

Question: And the GI50 (TK-10 renal)?
Answer: 20.2 µM

Question: What about the TGI (TK-10 renal) of the same compound?
Answer: 41.5 µM

Question: What about the GI50 (OVCAR-4 ovarian) of the same compound?
Answer: 24.7 µM

Question: What about the TGI (OVCAR-4 ovarian) of the same compound?
Answer: 61.4 µM

Question: And the GI50 (HCT-15 colon)?
Answer: 13.7 µM

Question: What about the TGI (HCT-15 colon) of the same compound?
Answer: 26.7 µM

Question: What about the GI50 (UO-31 renal) of the same compound?
Answer: 16.6 µM

Question: What about the TGI (UO-31 renal) of the same compound?
Answer: 30.2 µM

Question: What about the GI50 (HT29 colon) of the same compound?
Answer: 23.2 µM

Question: What about the TGI (HT29 colon) of the same compound?
Answer: 48.2 µM

Question: And the GI50 (M14 melanoma)?
Answer: 13.2 µM

Question: And the TGI (M14 melanoma)?
Answer: 27.1 µM

Question: And the GI50 (SK-MEL-5 melanoma)?
Answer: 2.14 µM

Question: What about the TGI (SK-MEL-5 melanoma) of the same compound?
Answer: 5.13 µM

Question: And the GI50 (A498 renal)?
Answer: 18.7 µM

Question: And the TGI (A498 renal)?
Answer: 33.3 µM

Question: And the GI50 (CAKI-1 renal)?
Answer: 14.5 µM

Question: What about the TGI (CAKI-1 renal) of the same compound?
Answer: 27.6 µM

Question: What about the GI50 (KM12 colon) of the same compound?
Answer: 16.1 µM

Question: And the TGI (KM12 colon)?
Answer: 30.3 µM

Question: And the GI50 (MDA-MB-231 breast)?
Answer: 13.8 µM

Question: What about the TGI (MDA-MB-231 breast) of the same compound?
Answer: 29.6 µM

Question: What about the GI50 (U251 CNS) of the same compound?
Answer: 17.3 µM

Question: What about the TGI (U251 CNS) of the same compound?
Answer: 47.3 µM

Question: And the GI50 (MALME-3M melanoma)?
Answer: 14.7 µM

Question: What about the TGI (MALME-3M melanoma) of the same compound?
Answer: 28.9 µM

Question: And the GI50 (SR leukemia)?
Answer: 2.65 µM

Question: And the TGI (SR leukemia)?
Answer: 8.95 µM

Question: And the GI50 (DU-145 prostate)?
Answer: 24.4 µM

Question: What about the TGI (DU-145 prostate) of the same compound?
Answer: 62.1 µM

Question: What about the GI50 (LOX IMVI melanoma) of the same compound?
Answer: 4.28 µM

Question: And the TGI (LOX IMVI melanoma)?
Answer: 16 µM

Question: And the GI50 (SNB-19 CNS)?
Answer: 15.6 µM

Question: And the TGI (SNB-19 CNS)?
Answer: 29 µM

Question: What about the GI50 (T-47D breast) of the same compound?
Answer: 19.8 µM

Question: What about the TGI (T-47D breast) of the same compound?
Answer: 47 µM

Question: What about the GI50 (SF-268 CNS) of the same compound?
Answer: 21.1 µM

Question: What about the TGI (SF-268 CNS) of the same compound?
Answer: 42.6 µM

Question: What about the GI50 (SNB-75 CNS) of the same compound?
Answer: 13.6 µM

Question: What about the TGI (SNB-75 CNS) of the same compound?
Answer: 27 µM

Question: What about the GI50 (SF-539 CNS) of the same compound?
Answer: 15.2 µM

Question: What about the TGI (SF-539 CNS) of the same compound?
Answer: 29.2 µM

Question: What about the GI50 (NCI-H522 lung) of the same compound?
Answer: 19.8 µM

Question: What about the TGI (NCI-H522 lung) of the same compound?
Answer: 42.5 µM

Question: What about the GI50 (MCF7 breast) of the same compound?
Answer: 4.66 µM

Question: And the TGI (MCF7 breast)?
Answer: 19.3 µM

Question: What about the GI50 (RXF 393 renal) of the same compound?
Answer: 16 µM

Question: What about the TGI (RXF 393 renal) of the same compound?
Answer: 29.9 µM

Question: And the GI50 (SK-MEL-2 melanoma)?
Answer: 18.8 µM

Question: What about the TGI (SK-MEL-2 melanoma) of the same compound?
Answer: 41.3 µM

Question: What about the GI50 (K-562 leukemia) of the same compound?
Answer: 3.43 µM

Question: And the TGI (K-562 leukemia)?
Answer: > 100 µM

Question: And the GI50 (OVCAR-8 ovarian)?
Answer: 27.1 µM

Question: What about the TGI (OVCAR-8 ovarian) of the same compound?
Answer: > 100 µM

Question: And the GI50 (IGROV1 ovarian)?
Answer: 16.3 µM

Question: And the TGI (IGROV1 ovarian)?
Answer: 32.5 µM

Question: What about the GI50 (SN12C renal) of the same compound?
Answer: 15.7 µM

Question: And the TGI (SN12C renal)?
Answer: 29.5 µM

Question: What about the GI50 (SF-295 CNS) of the same compound?
Answer: 10.7 µM

Question: And the TGI (SF-295 CNS)?
Answer: 22.6 µM

Question: And the GI50 (HCC-2998 colon)?
Answer: 15.6 µM

Question: What about the TGI (HCC-2998 colon) of the same compound?
Answer: 29.2 µM
